Experiments:
[1] = system: SAS cells; assay: Cytotoxicity of AlPcS2a itself (photosensitizer tolerance); assay type: cell-based; conditions: AlPcS2a alone with light
Protocol: For the purpose of increasing IT-Robo 1 internalization efficiency, the present inventors have used AlPcS2a, which forms reactive oxygen species as a result of light irradiation and induces destruction of endosome. At first, the cytotoxicity of AlPcS2a itself was examined, and the optimal concentration to various cells was then determined.

[2] = system: HSQ-89 cell line xenograft; assay: Antitumor effects of combined use of IT-Robo1 and PCI on HSQ-89 cell line xenograft mice; assay type: in vivo
Protocol: A supernatant was aspirated from a 10 cmφ dish, in which the HSQ-89 cell line was cultured, and was then washed with D-PBS (Dulbecco's phosphate buffer). Thereafter, 1 ml of 2.5 g/l trypsin/1 mM EDTA solution was added to the resultant, and the obtained mixture was then left at rest for several minutes in a CO2 incubator. After confirming that the cells were peeled from the bottom surface of the dish, 9 ml of the culture solution was added, and centrifugation was then performed at 1,000 rpm at 4° C. for 5 minutes. After that, a supernatant was aspirated, 10 ml of PBS was then added thereto, and the obtained mixture was then centrifuged at 1,000 rpm at 4° C. for 5 minutes. Thereafter, a supernatant was aspirated, 10 ml of PBS was added thereto, and the number of cells was then counted. Again, 10 ml of PBS was added to the cells, and the obtained mixture was then centrifuged at 1,000 rpm at 4° C. for 5 minutes. Thereafter, a supernatant was aspirated, and PBS was added thereto to a cell density of 2×10^7 cell/ml. Basement Membrane Matrix Gel (Corning, N.Y.) that had been cooled on ice was added in an equal amount, and 2×10^6 cells/200 μl were then collected using a 23G needle and a 1-ml syringe that had been cooled on ice. Subsequently, the collected cells were subcutaneously administered (SC) to the right shoulder of 6-weel-old male BALB/cSlc-nu/nu mice to produce xenograft mice (cancer-bearing mice). The size of a tumor was calculated according to the following equation:
Tumor size=π/6×Height (mm)×Width (mm)×Depth (mm) […]
With reference to “Guidelines for Proper Conduct of Animal Experiments (2006)” established by Science Council of Japan, a tumor with a size of 1,000 mm^3 or more, or a drastic reduction in body weight (a reduction of 25% or more of body weight for a week) was set at endpoint, and the mice were euthanized by cervical dislocation. The measurement of a tumor size and evaluation of the body weight were carried out over time, and at the endpoint, the size and weight of the tumor and the body weight were evaluated.

In the case of “aluminum phthalocyanine disulfonic acid [AlPcS2a]”, the “sensitivity of cells to photosensitizer treatment” value [1] is reported as “weak to the treatment with a photosensitizer”, the “ulcer and crust formation at irradiated site” value ([2]; about two days after the irradiation) is reported as “an ulcer was formed at the cancer protrusion site” and the “edema at irradiated site” value ([2]; after local irradiation with 650 nm, for several days from the next day, gradually reduced) is reported as “edema was found at the irradiated sites and the surrounding portions thereof”. The “time until crust fell off after crust formation” value ([2]; mouse, in vivo) was 10 days.

From patent US20200147233A1, “METHOD FOR KILLING TUMOR CELLS AND COMPOSITION USED THEREFOR” (PhotoQ3 Inc., priority 2018, published 2020)
